Experimental data: patent publication US20220281848A1, “PYRAZOLE-SUBSTITUTED PYRROLIDINONES AS HERBICIDES” (FMC Corporation, priority 2019, published 2022)

Key:
[1] = system: wheat; test: Test D post-emergence, wheat seed treated with a herbicide safener; assay type: in vivo; conditions: "Cereals" Postemergent
Procedure, shortened: (§1)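 Damage was rated visually from 0 (none) to 100 (total), at 20 DAA for pre-emergence and 15 d for post-emergence. Plants grew from safener-treated seed in a glasshouse at 24/18° C. or 20/16° C. day/night, 65% humidity, watered twice daily.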

[2] = system: plants; test: Test D post-emergence, other plants of Tables D2 and D4; assay type: in vivo; conditions: for damage to plant (100=total damage to plant; 0=no damage to plant), ABUTH / damage to plant (100=total damage to plant; 0=no damage to plant), AMARE / damage to plant (100=total damage to plant; 0=no damage to plant), BIDPI / damage to plant (100=total damage to plant; 0=no damage to plant), BRAPL / damage to plant (100=total damage to plant; 0=no damage to plant), CYPES / damage to plant (100=total damage to plant; 0=no damage to plant), DIGSA / damage to plant (100=total damage to plant; 0=no damage to plant), ECHCG / damage to plant (100=total damage to plant; 0=no damage to plant), ELEIN / damage to plant (100=total damage to plant; 0=no damage to plant), EPHHL / damage to plant (100=total damage to plant; 0=no damage to plant), GLXMA / damage to plant (100=total damage to plant; 0=no damage to plant), IPOHE / damage to plant (100=total damage to plant; 0=no damage to plant), ORYSA / damage to plant (100=total damage to plant; 0=no damage to plant), PANMI / damage to plant (100=total damage to plant; 0=no damage to plant), SETFA / damage to plant (100=total damage to plant; 0=no damage to plant), SORVU: post-emergence
Procedure, shortened: as §1

[3] = "Cereals" Postemergent, Rates 130, evaluated after 15 d
[4] = "Cereals" Postemergent, Rates 250, evaluated after 15 d
[5] = "Cereals" Postemergent, Rates 500, evaluated after 15 d

COc1c(F)cccc1NC(=O)C1C(=O)N(C)CC1c1cc(C(F)(F)F)n(C)n1 (racemic) [Compound 18]
10: TRZAW damage rating (100=total damage to plant; 0=no damage to plant) ([1]; Rates 250, evaluated after 15 d) | ALOMY damage rating (100=total damage to plant; 0=no damage to plant) [2, 3] | BRSNN damage rating (100=total damage to plant; 0=no damage to plant) [2, 3] | BRSNN damage rating (100=total damage to plant; 0=no damage to plant) [2, 4] | LOLPE damage rating (100=total damage to plant; 0=no damage to plant) [2, 5] | damage to plant (100=total damage to plant; 0=no damage to plant), AMARE ([2]; rate 250, evaluated after 15 d) | damage to plant (100=total damage to plant; 0=no damage to plant), EPHHL ([2]; rate 250, evaluated after 15 d) | damage to plant (100=total damage to plant; 0=no damage to plant), PANMI ([2]; rate 250, evaluated after 15 d) | damage to plant (100=total damage to plant; 0=no damage to plant), PANMI ([2]; rate 500, evaluated after 15 d)
70: POAAN damage rating (100=total damage to plant; 0=no damage to plant) [2, 5] | damage to plant (100=total damage to plant; 0=no damage to plant), BRAPL ([2]; rate 250, evaluated after 15 d) | damage to plant (100=total damage to plant; 0=no damage to plant), DIGSA ([2]; rate 500, evaluated after 15 d) | damage to plant (100=total damage to plant; 0=no damage to plant), ECHCG ([2]; rate 500, evaluated after 15 d) | damage to plant (100=total damage to plant; 0=no damage to plant), SETFA ([2]; rate 500, evaluated after 15 d)
30: ALOMY damage rating (100=total damage to plant; 0=no damage to plant) [2, 4] | HORVW damage rating (100=total damage to plant; 0=no damage to plant) [2, 4] | damage to plant (100=total damage to plant; 0=no damage to plant), ABUTH ([2]; rate 500, evaluated after 15 d) | damage to plant (100=total damage to plant; 0=no damage to plant), DIGSA ([2]; rate 130, evaluated after 15 d) | damage to plant (100=total damage to plant; 0=no damage to plant), IPOHE ([2]; rate 500, evaluated after 15 d) | damage to plant (100=total damage to plant; 0=no damage to plant), SETFA ([2]; rate 250, evaluated after 15 d)
40: TRZAW damage rating (100=total damage to plant; 0=no damage to plant) ([1]; Rates 500, evaluated after 15 d) | ALOMY damage rating (100=total damage to plant; 0=no damage to plant) [2, 5] | AVEFA damage rating (100=total damage to plant; 0=no damage to plant) [2, 5] | GALAP damage rating (100=total damage to plant; 0=no damage to plant) [2, 5] | SINAR damage rating (100=total damage to plant; 0=no damage to plant) ([2]; SINAR, "Cereals" Postemergent, Rates 500, evaluated after 15 d) | VERPE damage rating (100=total damage to plant; 0=no damage to plant) [2, 5]
20: AVEFA damage rating (100=total damage to plant; 0=no damage to plant) [2, 4] | BRSNN damage rating (100=total damage to plant; 0=no damage to plant) [2, 5] | CHEAL damage rating (100=total damage to plant; 0=no damage to plant) [2, 5] | STEME damage rating (100=total damage to plant; 0=no damage to plant) [2, 5] | damage to plant (100=total damage to plant; 0=no damage to plant), AMARE ([2]; rate 500, evaluated after 15 d) | damage to plant (100=total damage to plant; 0=no damage to plant), BIDPI ([2]; rate 500, evaluated after 15 d) | damage to plant (100=total damage to plant; 0=no damage to plant), EPHHL ([2]; rate 500, evaluated after 15 d) | damage to plant (100=total damage to plant; 0=no damage to plant), IPOHE ([2]; rate 250, evaluated after 15 d)
60: damage to plant (100=total damage to plant; 0=no damage to plant), BRAPL ([2]; rate 130, evaluated after 15 d) | damage to plant (100=total damage to plant; 0=no damage to plant), DIGSA ([2]; rate 250, evaluated after 15 d) | damage to plant (100=total damage to plant; 0=no damage to plant), ECHCG ([2]; rate 250, evaluated after 15 d)
50: HORVW damage rating (100=total damage to plant; 0=no damage to plant) [2, 5] | POAAN damage rating (100=total damage to plant; 0=no damage to plant) [2, 4]
80: damage to plant (100=total damage to plant; 0=no damage to plant), BRAPL ([2]; rate 500, evaluated after 15 d)
0: TRZAW damage rating (100=total damage to plant; 0=no damage to plant) ([1]; Rates 130, evaluated after 15 d) | AVEFA damage rating (100=total damage to plant; 0=no damage to plant) [2, 3] | BEAVA damage rating (100=total damage to plant; 0=no damage to plant) [2, 3] | BEAVA damage rating (100=total damage to plant; 0=no damage to plant) [2, 4] | BEAVA damage rating (100=total damage to plant; 0=no damage to plant) [2, 5] | BROTE damage rating (100=total damage to plant; 0=no damage to plant) [2, 3] | BROTE damage rating (100=total damage to plant; 0=no damage to plant) [2, 4] | BROTE damage rating (100=total damage to plant; 0=no damage to plant) [2, 5] | CHEAL damage rating (100=total damage to plant; 0=no damage to plant) [2, 3] | CHEAL damage rating (100=total damage to plant; 0=no damage to plant) [2, 4] | GALAP damage rating (100=total damage to plant; 0=no damage to plant) [2, 3] | GALAP damage rating (100=total damage to plant; 0=no damage to plant) [2, 4] | HORVW damage rating (100=total damage to plant; 0=no damage to plant) [2, 3] | KCHSC damage rating (100=total damage to plant; 0=no damage to plant) [2, 3] | KCHSC damage rating (100=total damage to plant; 0=no damage to plant) [2, 4] | KCHSC damage rating (100=total damage to plant; 0=no damage to plant) [2, 5] | LOLPE damage rating (100=total damage to plant; 0=no damage to plant) [2, 3] | LOLPE damage rating (100=total damage to plant; 0=no damage to plant) [2, 4] | POAAN damage rating (100=total damage to plant; 0=no damage to plant) [2, 3] | POLCO damage rating (100=total damage to plant; 0=no damage to plant) [2, 3] | POLCO damage rating (100=total damage to plant; 0=no damage to plant) [2, 4] | POLCO damage rating (100=total damage to plant; 0=no damage to plant) [2, 5] | STEME damage rating (100=total damage to plant; 0=no damage to plant) [2, 3] | STEME damage rating (100=total damage to plant; 0=no damage to plant) [2, 4] | VERPE damage rating (100=total damage to plant; 0=no damage to plant) [2, 3] | VERPE damage rating (100=total damage to plant; 0=no damage to plant) [2, 4] | damage to plant (100=total damage to plant; 0=no damage to plant), ABUTH ([2]; rate 130, evaluated after 15 d) | damage to plant (100=total damage to plant; 0=no damage to plant), ABUTH ([2]; rate 250, evaluated after 15 d) | damage to plant (100=total damage to plant; 0=no damage to plant), AMARE ([2]; rate 130, evaluated after 15 d) | damage to plant (100=total damage to plant; 0=no damage to plant), BIDPI ([2]; rate 130, evaluated after 15 d) | damage to plant (100=total damage to plant; 0=no damage to plant), BIDPI ([2]; rate 250, evaluated after 15 d) | damage to plant (100=total damage to plant; 0=no damage to plant), CYPES ([2]; rate 130, evaluated after 15 d) | damage to plant (100=total damage to plant; 0=no damage to plant), CYPES ([2]; rate 250, evaluated after 15 d) | damage to plant (100=total damage to plant; 0=no damage to plant), CYPES ([2]; rate 500, evaluated after 15 d) | damage to plant (100=total damage to plant; 0=no damage to plant), ECHCG ([2]; rate 130, evaluated after 15 d) | damage to plant (100=total damage to plant; 0=no damage to plant), ELEIN ([2]; rate 130, evaluated after 15 d) | damage to plant (100=total damage to plant; 0=no damage to plant), ELEIN ([2]; rate 250, evaluated after 15 d) | damage to plant (100=total damage to plant; 0=no damage to plant), ELEIN ([2]; rate 500, evaluated after 15 d) | damage to plant (100=total damage to plant; 0=no damage to plant), EPHHL ([2]; rate 130, evaluated after 15 d) | damage to plant (100=total damage to plant; 0=no damage to plant), GLXMA ([2]; rate 130, evaluated after 15 d) | damage to plant (100=total damage to plant; 0=no damage to plant), GLXMA ([2]; rate 250, evaluated after 15 d) | damage to plant (100=total damage to plant; 0=no damage to plant), GLXMA ([2]; rate 500, evaluated after 15 d) | damage to plant (100=total damage to plant; 0=no damage to plant), IPOHE ([2]; rate 130, evaluated after 15 d) | damage to plant (100=total damage to plant; 0=no damage to plant), ORYSA ([2]; rate 130, evaluated after 15 d) | damage to plant (100=total damage to plant; 0=no damage to plant), ORYSA ([2]; rate 250, evaluated after 15 d) | damage to plant (100=total damage to plant; 0=no damage to plant), ORYSA ([2]; rate 500, evaluated after 15 d) | damage to plant (100=total damage to plant; 0=no damage to plant), PANMI ([2]; rate 130, evaluated after 15 d) | damage to plant (100=total damage to plant; 0=no damage to plant), SETFA ([2]; rate 130, evaluated after 15 d) | damage to plant (100=total damage to plant; 0=no damage to plant), SORVU ([2]; rate 130, evaluated after 15 d) | damage to plant (100=total damage to plant; 0=no damage to plant), SORVU ([2]; rate 250, evaluated after 15 d) | damage to plant (100=total damage to plant; 0=no damage to plant), SORVU ([2]; rate 500, evaluated after 15 d)
